This note sets out measurements from US8445522B2, “Substituted 2-(4-pyridyl)benzoxazoles, and compositions thereof, for use in arthropod pest control” (Sumitomo Chemical Company, Limited, priority 2009, dated 2013).

As usually defined, the mortality is the percentage killed.

A value given as a limit tells only on which side of the number the result lay.

Format in all cases: in vivo
Test [1] deals with cotton aphids. The test can be described thus: Test Example 8 and Comparative Test Example: 200 ppm diluent scattered on cucumber seedling inoculated with cotton aphids. Particulars: 200 ppm active ingredient, 10 ml scattered on cucumber seedling, counted five days after scattering.
The test system of test [2] is cotton aphids (Aphis gossypii Glover). The test can be described thus: Test Example 1: test diluent scattered on cucumber seedling inoculated with cotton aphids. Particulars: 120 h, read-out: Control value. The essentials: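 Cucumber seedlings at second true leaf stage, infested with about 30 cotton aphids one day before, were sprayed with 10 ml of diluent at 500 ppm active ingredient. Survivors counted 5 days later; control value (%) from treated versus untreated counts before and after treatment.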

In test [3] the test system is cotton aphids. The test can be described thus: Test Example 3: plant foot irrigation of cucumber seedling in plastic cup, cotton aphids inoculated after seven days. Particulars: 144 h, read-out: Control value. How it is done: The formulations were diluted with water so that the concentration of the active ingredient became 500 ppm and thus test diluents were prepared. On the other hand, a plant foot of cucumber seedling (second true leaf development stage) planted in a plastic cup was irrigated with any one of diluents (5 ml). The seedling was kept in a green house of 25° C. for seven days. The cucumber leaves were inoculated with 30 cotton aphids (all stages) and kept in the green house for further six days. Thereafter, the number of survived cotton aphids parasitic on the cucumber leaves was counted, and the control value was calculated by the following equation. Control value(%)={1−(Cb×Tai)/(Cai×Tb)}×100 wherein each character represents the following meaning: Cb: number of insects in non-treated section before treatment Cai: number of insects in non-treated section during observation Tb: number of insects in treated section before treatment Tai: number of insects in treated section during observation

The test system of test [4] is rice brown planthopper. The test can be described thus: Test Example 6: plant foot irrigation of rice plant seedling, rice brown planthopper released after seven days. The note with it: Nilaparvata lugens, 144 h, read-out: Control value. The method in brief: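 Two-week-old rice seedlings (second-leaf stage) had the plant foot irrigated with 5 ml of 500 ppm active ingredient, kept 7 days at 25° C, then infested with thirty first-instar brown planthoppers. Survivors counted after six more days at 25° C; control value (%) computed by Henderson–Tilton-type formula versus untreated.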

The test system of test [5] is halymorpha halys. The test can be described thus: Test Example 7: treated tissue paper with budding soybeans, halymorpha halys mortality. Particulars: 168 h. How it is done:
Formulations were prepared by the method described in Formulation Example 1 with respect to each of the active compound 13, the active compound 15, the active compound 18, the active compound 35, the active compound 37, the active compound 44, the active compound 65, the active compound 68 and the active compound 82. The formulations were diluted with water so that the concentration of the active ingredient became 100 ppm and thus test diluents were prepared.
On the other hand, a tissue paper placed in an aluminum cup was irrigated with any one of the above-mentioned diluents (5 ml). The tissue paper was placed in a polyethylene cup together with three budding soybeans. In the polyethylene cup, ten halymorpha halys were released, and the polyethylene cup was lidded by a polyethylene lid. Seven days after the releasing of the insects, the number of survived insects was counted, and the mortality was calculated by the following equation. Mortality(%)=(number of dead insects/number of insects to be tested)×100

Test [6] has as its system tobacco whitefly. The test can be described thus: Test Example 4: test diluent scattered on tomato seedling with hatched tobacco whitefly larvae. The note with it: 168 h, read-out: Control value. The essentials: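 Tomato seedlings carried whitefly larvae hatched from a 24 h egg lay and were sprayed with 500 ppm active ingredient. After seven days at 25° C, surviving larvae were counted. Control value (%) was calculated against untreated plants, corrected for pre-treatment counts.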

Test [7] has as its system cotton aphids. Put plainly: Test Example 2: plant foot irrigation of cucumber seedling in urethane mat, cotton aphids inoculated one day after treatment. The note with it: 168 h, read-out: Control value. The essentials:
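Cucumber seedlings at second true-leaf stage in urethane mat were foot-irrigated with 500 ppm active ingredient dilution. Leaves were inoculated with 30 cotton aphids (all stages) one day after treatment. Survivors counted seven days later, and control value (%) was calculated against the non-treated section using pre- and post-treatment insect counts.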

For the molecule `c1ccc2oc(-c3ccncc3)nc2c1` [comparative compound (B)], the Control value entry in test [1] is “less than 30%”.
As to `COc1cnccc1-c1nc2cc(C(F)(F)F)ccc2o1` [active compound 37, 2-(3-methoxypyridin-4-yl)-5-(trifluoromethyl)benzoxazole], the pest or weed control at 500 ppm in test [2], in test [3], in test [4], in test [6] and in test [7] was ≥ 90% in each case. In addition, the mortality at 100 ppm in test [5] was ≥ 80%.
